From ChEMBL document CHEMBL3638389, “Chemokine receptor antagonists” (2014) come the findings set out here.

For this experiment, the target named is C-C chemokine receptor type 2 (Homo sapiens, UniProt P41597). The experiment in a line: Radioligand Binding Assay: Radioligand binding assays were performed in CHO cells expressing human CCR2B and Galpha±16 coupling protein. All compounds were dissolved in DMSO and assays run at a final DMSO concentration of 0.5% (v/v). [125I]-labeled human MCP-1 was purchased from PerkinElmer. Unlabelled human MCP-1 was purchased from PeproTech.Compounds were serially diluted in DMSO before diluting into assay buffer (25 mM HEPES, pH 7.4, 5 mM MgCl2, 1 mM CaCl2, 0.5% BSA) with cryo preserved CHO cells expressing human CCR2B and the Galpha±16 coupling protein (30x10^3/well) and [125I]-MCP-1 (50 pM). The reaction was incubated at room temperature for 90 minutes before transferring to GF/C filter membrane (PerkinElmer) pre-treated with 0.3% polyethyleneimine for 2 hours at 4 C. The filter membrane was washed six times with ice cold wash buffer (25 mM HEPES, pH 7.4, 5 mM MgCl2, 1 mM CaCl2, 500 mM NaCl, 0.01% (m/v) azide), dried, and sealed in a RLB sample bag (Agilent Technologies). It is filed as cell-based.
C-C chemokine receptor type 2, sequence (P41597 whole entry): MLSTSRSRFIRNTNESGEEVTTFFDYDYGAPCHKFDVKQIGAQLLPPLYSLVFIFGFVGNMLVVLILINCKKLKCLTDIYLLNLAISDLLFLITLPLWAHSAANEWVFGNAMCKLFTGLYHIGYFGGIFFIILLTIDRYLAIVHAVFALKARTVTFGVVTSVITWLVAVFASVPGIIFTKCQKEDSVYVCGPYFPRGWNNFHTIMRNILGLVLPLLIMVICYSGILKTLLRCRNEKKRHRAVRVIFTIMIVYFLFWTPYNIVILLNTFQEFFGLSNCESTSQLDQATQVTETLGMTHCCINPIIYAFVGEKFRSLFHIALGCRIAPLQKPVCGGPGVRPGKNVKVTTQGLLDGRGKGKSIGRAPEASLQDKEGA

As usually defined, the IC50 is the midpoint of a concentration-inhibition curve. In the case of `CO[C@@H]1COCC[C@@H]1N[C@@H]1C[C@H]2CCC[C@@]2(C(=O)N2C[C@@H]3C[C@H]2CN3c2cc(C(F)(F)F)cc(C(F)(F)F)c2)C1`, the IC50 was 1520 nM.
The term Ki denotes the dissociation constant of the complex between target and ligand, obtained from inhibition or displacement. In the case of `CO[C@@H]1COCC[C@@H]1N[C@@H]1C[C@H]2CCC[C@@]2(C(=O)N2C[C@@H]3C[C@H]2CN3c2ccc(Cl)c(C(F)(F)F)c2)C1`, the IC50 was 17.6 nM and the Ki amounted to 17 nM.
